From PMC5075098, “Preclinical Evaluation of the Stability, Safety, and Efficacy of CD101, a Novel Echinocandin” (Antimicrobial Agents and Chemotherapy, 2016)
Where two headings read alike, the source gives them in different places. Starred links: 1 amine or outer side, 2 acyl side, 3 side chain; linkers in the order of their positions; H or OH if unused. Positions of bridges follow the written chain, without caps; N, C: chain ends. Non-standard residues stand in square brackets, D forms with d. Residues, ends and D or L forms follow the SMILES beside them. *: point of attachment. Orn(4R-OH,5R-OCH2CH2NMe3+) = C[N+](C)(C)CCO[C@@H](N[*:3])[C@H](O)C[C@H](N[*:1])C(=O)[*:2]; pTerphenylCO(4''-OnC5H11) = CCCCCOc1ccc(-c2ccc(-c3ccc(C(=O)*)cc3)cc2)cc1; hTyr(3S-OH,4S-OH) = N[C@H](C(=O)O)[C@H](O)[C@@H](O)c1ccc(O)cc1; Pro(3S-OH,4S-Me) = C[C@H]1CN[C@H](C(=O)O)[C@H]1O; Hyp = O=C(O)[C@@H]1C[C@@H](O)CN1

Tests used:
[1] = 4-week repeat-dose, ref Ong et al., submitted, cited from earlier work
Description: The studies described herein are part of a comprehensive series of safety, pharmacology, and toxicology studies of up to 4 weeks' duration as well as genetic toxicology studies, as required for an investigational new drug application. The results provide important insights for further research and development of CD101 and are best considered in this broader, developing context.

[2] = system: A. fumigatus (ATCC 13073); test: MEC/MIC, CLSI broth microdilution; conditions: 24 h at 35°C, rounded/compact hyphal morphology
Method: Enumeration of MIC and MEC assay inoculum viable counts was performed by plating aliquots of the starting assay inoculum on Sabouraud dextrose agar.

[3] = target: T1, CYP2C8 (Homo sapiens, UniProt P10632); test: CYP450 inhibition in human liver microsomes
T1 sequence (P10632 1-490): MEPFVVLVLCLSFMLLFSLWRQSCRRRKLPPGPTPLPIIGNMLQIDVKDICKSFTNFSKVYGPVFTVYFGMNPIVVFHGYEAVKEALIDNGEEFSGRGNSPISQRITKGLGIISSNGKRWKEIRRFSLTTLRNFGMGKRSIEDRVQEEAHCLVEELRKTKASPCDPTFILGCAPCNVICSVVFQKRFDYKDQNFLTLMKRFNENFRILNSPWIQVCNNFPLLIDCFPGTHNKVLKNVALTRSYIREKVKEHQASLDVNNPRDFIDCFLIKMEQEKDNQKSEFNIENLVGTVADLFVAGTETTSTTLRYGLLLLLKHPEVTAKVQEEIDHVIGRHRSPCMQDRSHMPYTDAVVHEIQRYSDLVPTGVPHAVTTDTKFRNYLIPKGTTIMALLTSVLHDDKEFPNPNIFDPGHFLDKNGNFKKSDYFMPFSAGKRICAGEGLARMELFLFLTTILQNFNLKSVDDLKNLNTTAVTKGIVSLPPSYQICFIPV
Method: The final DMSO content in the reaction mixture was equal in all solutions used within an assay and was less than 0.2%. […] After incubation for 5 min at 37°C, the reactions were terminated by addition of methanol-containing internal standard (propranolol) for analytical quantification. The quenched samples were incubated at 4°C for 10 min and centrifuged at 4°C for 10 min.

[4] = Plasma protein binding, rapid equilibrium dialysis; format: in vitro ADME, Sprague-Dawley rat; conditions: rat, pH 7.4, read-out: protein bound (converted)
Method: (§1) Rapid equilibrium dialysis (RED) ([16]) was used to determine cross-species protein binding of CD101 in CD-1 mouse, Sprague-Dawley rat, cynomolgus monkey, chimpanzee, and human plasma. […] Dialysis buffer (350 μl of phosphate-buffered saline [PBS], pH 7.4, with 100 mM sodium phosphate) was loaded into the buffer (left) channel of the RED device. The device was agitated gently at 37°C for 4 h. Samples were placed into a new 96-well plate for matrix matching (25 μl of plasma added to the dialysis buffer aliquots or 25 μl of dialysis buffer to the plasma aliquots). […] Following centrifugation, 200 μl of the supernatant was transferred to a clean 96-well plate and evaporated to dryness at 37°C under nitrogen. Samples were reconstituted in 100 μl of 1:1 acetonitrile-water prior to analysis by LC-MS/MS. The percentage bound was calculated as the difference between 100% and the percentage free (the ratio of the concentration in supernatant to the concentration in plasma).

[5] = Plasma protein binding, rapid equilibrium dialysis; format: in vitro ADME, chimpanzee; conditions: pH 7.4, read-out: protein bound (converted)
Method: as §1

[6] = system: C. albicans R303; test: Neutropenic mouse model of C. albicans infection, kidney colony counts; conditions: for log reduction in CFU per gram relative to vehicle: 24, 48, 72 h
Method: Immunosuppression was induced by two intraperitoneal (i.p.) injections of cyclophosphamide at 150 mg/kg 4 days before and 100 mg/kg 1 day before inoculation. […] The animals in the fluconazole group were sacrificed 48 h after infection.

[7] = after 44 h; cited from earlier work
Description: CD101, a novel echinocandin being developed as a high-exposure, once-weekly intravenous (i.v.) formulation for the treatment and prevention of systemic fungal infections, was designed to be chemically and metabolically stable to avoid hepatotoxicity while retaining the antifungal activity of an echinocandin.

[8] = rat
[9] = Inhibition of recombinant CYP450 enzymes; format: in vitro ADME; conditions: recombinant CYP450 enzymes 1A2, 2B6, 2C8, 2C9, 2C19, 2D6, 3A4
[10] = Plasma protein binding, rapid equilibrium dialysis; format: in vitro ADME, CD-1 mouse; conditions: mouse, pH 7.4, read-out: protein bound (converted)
Method: as §1

[11] = Metabolic stability in liver microsomes; conditions: for t1/2, NADPH free / half-life in liver microsomes: 1 μM; for t1/2, NADPH free: up to 2 h at 37°C, LC-MS/MS, first-order decay fit; for half-life in liver microsomes: NADPH state not specified, 37°C; for half-life: liver microsomes
Method: Metabolic stability was determined as described in reference. […] Following incubation, samples were quenched with ice-cold methanol or acetonitrile (ACN), containing an appropriate internal standard and centrifuged to remove precipitated protein, and the supernatants were analyzed to quantitate the remaining parent. […] Data were converted to the percentage remaining by dividing by the time zero concentration value. Data were fit to a first-order decay model to determine half-life. Intrinsic clearance was calculated from the half-life and the protein concentrations.

CCCCCOc1ccc(-c2ccc(-c3ccc(C(=O)N[C@H]4C[C@@H](O)[C@@H](OCC[N+](C)(C)C)NC(=O)[C@@H]5[C@@H](O)[C@@H](C)CN5C(=O)[C@H]([C@@H](C)O)NC(=O)[C@H]([C@H](O)[C@@H](O)c5ccc(O)cc5)NC(=O)[C@@H]5C[C@@H](O)CN5C(=O)[C@H]([C@@H](C)O)NC4=O)cc3)cc2)cc1 [CD101] ({pTerphenylCO(4''-OnC5H11)}-[Orn(4R-OH,5R-OCH2CH2NMe3+)]T[Hyp][hTyr(3S-OH,4S-OH)]T[Pro(3S-OH,4S-Me)]; lactam 1-C)
no observed adverse effect level relative to the efficacious plasma exposure level ([1]; cynomolgus monkeys): 47 times | no observed adverse effect level relative to the efficacious plasma exposure level ([1]; rats): 34 times | MEC [2]: 0.004 µg/mL | IC50 [3]: 25.7 µM | fraction unbound [4]: 0.022 | fraction unbound [5]: 0.012 | log reduction in CFU per gram relative to vehicle ([6]; 0.2 mg/kg single i.v. dose): less than 1 log | log reduction in CFU per gram relative to vehicle ([6]; 0.4 mg/kg single i.v. dose): up to 1.7 log | log reduction in CFU per gram relative to vehicle ([6]; 0.6 mg/kg single i.v. dose): up to 2.9 log | log reduction in CFU per gram relative to vehicle ([6]; 0.8 mg/kg single i.v. dose): up to 4.7 log | antimicrobial effect (≥99%, 2-log reduction in CFU per gram) ([6]; CD101 0.6 and 0.8 mg/kg i.v., at 24, 48, and 72 h): significant | % remaining in human plasma [7]: 93% | half-life ([8]; liver microsomes): > 4 h | half-life ([8]; microsomes): 3.99 h | microsomal CLint ([8]; microsomes): 9.6 µL/min/mg | IC50 [9]: > 10 µM | fraction unbound [10]: 0.009 | t1/2, NADPH free ([11]; human liver microsomes without NADPH): >4 h | half-life in liver microsomes ([11]; human microsomes): ≥ 4 h | half-life ([11]; human): > 4 h | t1/2, NADPH free ([11]; monkey liver microsomes without NADPH): >4 h | half-life in liver microsomes ([11]; monkey microsomes): ≥ 4 h | half-life ([11]; monkey): > 4 h | microsomal CLint ([11]; monkey, microsomes): 2.1 µL/min/mg
